This is an account of results in US9975852B2, “Quinoline sulfonyl derivatives and uses thereof” (Health Sciences North Research Institute, priority 2013, dated 2018).

One data set deals with HeLa S3 cells. Put plainly: Confocal microscopy of spindle poles, centrosomes and cytoskeleton, HeLa S3 cells. Format: cell-based. The source says:
All immunocytochemistry experiments were visualized by confocal microscopy using a Zeiss 510 Meta laser scanning microscope (Carl Zeiss) equipped with a 63× objective lens, unless otherwise specified herein. Three lasers were utilized for excitation with the following band pass filter settings used for detection: Argon 488 nm (band pass 505-530), HeNe 543 nm (long pass 560) and 633 nm (long pass 650). All images were captured and analyzed using LSM 510 software included with the microscope (LSM Image Examiner™, Carl Zeiss).
The synchronization at the G1/S border (more accurately at the beginning of S phase) was achieved by double thymidine block (DT). Briefly, exponentially growing cells are treated with 2.0 mM thymidine for 18 hours, followed by incubation for 11 hours in drug-free complete medium, by which time most cells are at mid-late G1 phase. The cells are then incubated for another 14 hours in 2.0 mM thymidine to arrest them at the G1/S border. To arrest cells at the G2/M phase, cells were maintained for 18 hours in complete medium containing nocodazole (50 ng/ml). Both these synchronization are reversible.
VR-23 caused the formation of multiple spindle poles during late G1 phase in HeLa S3 cells (FIG. 9). HeLa S3 cells were synchronized at G2/M by nocodazole (50 ng/ml, 18 hours), followed by incubation for 6 hours in drug-free medium (at which time they were at G1) (see, e.g., FIG. 8). Cells were then incubated in the absence (control) or presence of 5 μM VR-23 for additional 6 hours (see flow cytometry profile in FIG. 8). […] Note the presence of uneven cell sizes (arrows) which may have been generated as a result of nondisjuctional chromosome segregation during mitosis.
Exponentially growing HeLa S3 cells were treated with 5 μM VR-23 for 6 hours, fixed, stained with an antibody specific for α-tubulin and then examined by confocal fluorescent microscopy for changes to their cytoskeletal structure. Sham denotes that the sample was treated exactly the same as VR-23 sample, except that they were not exposed to VR-23. […] HeLa S3 cells were treated with 2 mM thymidine for 18 hours, followed by incubation for 11 hours in drug-free complete medium, by which time most cells were at mid-late G1 phase. The cells were then incubated for another 14 hours in 2.0 mM thymidine in the absence (control) or presence of 10 μM VR-23. Under these conditions, cells are trapped in the beginning of S phase by a second thymidine block. No centrosome was amplified in the control, while over 87% of VR-23 treated cells analyzed contained multiple centrosomes.
HeLa S3 cells synchronized at the G1/S border by DT treatment were released into cell cycle for 1-6 hours in the absence (control) (FIG. 13A) or presence (FIG. 13B) of VR-23, followed by confocal microscopy. Centrosome amplification was manifested by 3 hour post-DT, although supernumerary started to form by 2 hour post-DT (solid arrows). (Due to experimental variations, centrosome amplification is not visible by 2 hours in all instances). […] More than 70% of cells exposed to VR-23 for 12 hours during S-G2/M contained multiple centrosomes, compared to less than 4% in the control. At least 200 cells were counted for each sample, and each experiment was repeated at least three times.
HeLa S3 cells synchronized at G1/S by DT were released into normal medium for 6 hours (cells reached ˜G2/M), at which time they were exposed to VR-23 for additional 6 hours. Solid arrows denote spindle assembly complexes. […] Triple MTOC/Three-way-pull phenotype comprises usually more than 50-60% of the total population. The “No attachment” phenotype is usually observed when DNA is not completely condensed.

The nature of data set [1]: Organ weight and histology (liver, spleen, kidney, lung) of ATH490 mice. The method, then:
All values are presented as mean±S.E.M. Analyses were performed using GraphPad Prism software (GraphPad Software). Comparison between the groups was made by p value determination using one-way ANOVA. A p value of <0.05 was considered to be statistically significant. […] Each organ weight (%) is normalized with total body weight (BW).
The H&E stained slides were taken with a 20× objective using a Zeiss EPI-fluorescent microscope (bright field). […] At least 10 fields for each slide (one slide per mouse, and 3 mice per group) were examined.
Images were taken with a 10× objective using a Zeiss EPI-fluorescent microscope. […] Drug administration was carried out as described in Table IX and in the Materials and Methods section herein with respect to Animal Studies.
The images of the H&E stained renal tissues were taken with a Zeiss EPI-fluorescent (bright field) microscope using a 10× objective.

In data set [2] the target is T1, Trypsin-like proteasome activity in HeLa S3 cell lysates (Homo sapiens, UniProt Q99436).
T1 construct: proteasomes were extracted in 0.5% NP40 buffer; endogenous in cells; host or cells: HeLa S3
Briefly: Proteasome activity assay, trypsin-like. Format: biochemical. Conditions: read-out: Inhibition (IC50) Trypsin-like. As for the experimental part:
Exponentially growing HeLa S3 cells were plated on 96-well plates. After overnight incubation, the cells were treated with different concentrations of drugs for 6 hours or left untreated (control). At the end of 6 hours, proteasomes were extracted in 0.5% NP40 buffer, and equal amounts of samples were incubated with 25 μM of fluorogenic substrates purchased from Boston Biochem (Cambridge Mass.). (LRR-specific for trypsin-like activity, LLE-specific for caspase-like activity and SUVY-specific for chymotrypsin like activity) in black-bottom 96-well plates at 37° C. Fluorescence was monitored every 5 min at the wavelength of 360 nm (excitation) and 480 nm (emission). Chymotrypsin activity was also determined by a kit-based method (similar to described above) purchased from Caymen Biochem (Ann Arbor, Mich.), using a fluorogenic substrate specific for chymotrypsin activity.
Analysis of proteasome activity in HeLa S3 cell lysates treated with various compounds (FIG. 10). VR-23 inhibits proteasome activity. 20S proteasome activity was inhibited by 1 μM VR-23. MG132 and EGCG, known proteasome inhibitors, were used as positive controls. The PC positive control is cell lysates prepared from Jurkat cells with a high proteasome activity. “Asynchr” denote asynchronous HeLa S3 cells grown in the absence of VR-23.

Setting [3] is: VR-23 for 6 hours from 6 hours post-DT.
[4] abbreviates: VR-23 30 mg/kg, paclitaxel 20 mg/kg.

The IC50 is the point on the concentration scale where inhibition reaches its midpoint.

As to `O=[N+]([O-])c1ccc(S(=O)(=O)N2CCN(c3ccnc4cc(Cl)ccc34)CC2)c([N+](=O)[O-])c1` [Compound 1, 7-Chloro-4-(4-(2,4-dinitrophenylsulfonyl)piperazin-1-yl)quinoline], the “Cells with multiple spindle phenotype” value in the data set on HeLa S3 cells (5 μM VR-23, 6 hours, late G1) came out at 44.4%. For the same compound, the Cytoskeletal formation entry in the data set with HeLa S3 cells (5 μM VR-23 for 6 hours, α-tubulin staining) was “caused abnormal cytoskeletal formation”. Further, in the data set on HeLa S3 cells (10 μM VR-23 during second thymidine block, 14 hours), the “Cells containing multiple centrosomes” value is “over 87%”. Moreover, the “Number of cells with multiple centrosomes” value (shortened to “Number of cells”) with HeLa S3 cells (3 hours post DT) is 41 ± 11.8. For the same compound, the “Number of cells” value in the data set with HeLa S3 cells (6 hours post DT) is reported as 55.2 ± 16.7. Besides, the “Number of cells” value in the data set on HeLa S3 cells (12 hours post DT) is 73.2 ± 1.0. In the data set on HeLa S3 cells (setting [3]), the “Mitotic cells among 352 cells counted” value is 34.1%; the “Mitotic cells with abnormal chromosome segregation” value is on record as 78.3%; the “Triple MTOC/Three-way-pull phenotype, share of total population” value is reported as 50-60%. Also, in the data set with HeLa S3 cells (exposed to VR-23 for 12 hours during S-G2/M), the “Cells containing multiple centrosomes” value was “More than 70%”. In data set [1] (ATH490 mice, VR-23, 30 mg/week, Paclitaxel, 20 mg/week), the “Microscopic Changes (liver)” value is “Largely (>95% of cases) normal”. In addition, in data set [1] (VR-23 30 mg/kg, 29 days post-treatment), the “Effects on vital organs by their weights” value was “did not cause any notable ill effects on vital organs”. Besides, in data set [1] (setting [4]), the “Mitotic index in the liver” value was “did not cause an increase in mitotic index” and the “Spleen histology (H&E)” value is “did not cause any notable toxicity to the spleen”. Further, the “Kidney histology (H&E), nephrotoxicity” value in data set [1] (VR-23 30 mg/kg, paclitaxel 20 mg/kg, four weeks) is listed as “did not cause any notable toxicity to the kidney”. The IC50 in data set [2] is 1 nM.
